# In US10815238B2, “Antimicrobial compounds and methods of making and using the same” (BIOVERSYS AG, priority 2013, dated 2020):
# System: Eschericia coli (E. coli) strain ATCC25922
# Assay: Standard microdilution assay, MIC against E. coli ATCC25922
# Assay type: cell-based
# Conditions: Escherichia coli; E. coli strain ATCC25922, standard microdilution assay; cutoff 16 micrograms/mL; read-out: MIC E. Coli
# Protocol: The in vitro activity of the compounds of the present invention can be determined. Antimicrobial testing is typically performed to determine the minimum inhibitory concentration (MIC). Minimum inhibitory concentrations (MICs) are determined by the microdilution method in a final volume of 100 μl according to protocols outlined by The Clinical and Laboratory Standards Institute (CLSI). Performance standards for reference strains are assessed within the same experimental design to maintain quality control. See, for example, Clinical Laboratory Standards Institute: Methods for dilution antimicrobial susceptibility tests for bacteria that grow aerobically M7-A8. Approved Standard-Eighth Edition. Wayne, Pa.: CLSI; December 2008; and Clinical Laboratory Standards Institute: Performance Standards for Antimicrobial Susceptibility Testing M100-S20; Approved Standard-Twentieth Edition. Wayne, Pa.: CLSI; June 2010.
# The compounds of the present invention were tested for antimicrobial activity. The Compounds 1-582 were run against Eschericia coli (E. coli) strain ATCC25922 and Compounds 320-582 were run against Staphylococcus aureus (S. aureus) 11540 strain using a standard microdilution assay to determine minimum inhibitory concentrations (MICs). […] It will be recognized by one skilled in the art that the compounds can be assessed against other bacterial organisms and that the presentation of data for activity against Eschericia coli and Staphylococcus aureus are illustrative and in no way is intended to limit the scope of the present invention. The compounds of the present invention can be assayed against a range of other microorganisms depending upon the performance activity desired to be gathered. Furthermore, the “+” and “−” representation and the selection of a cutoff value of 16 micrograms/mL is also illustrative and in no way is intended to limit the scope of the present invention.
row,SMILES,MIC
1,C[C@H](N)CCCc1cc(-c2cc3cn(-c4ccc([C@@H](CO)NCCCNC(=N)N)cc4)c(=O)nc3[nH]2)cc(C(F)(F)F)c1 [Compound 51],< 16 mg/L
2,C[C@H](N)CCCc1cc(-c2cc3cn(-c4ccc(CN5CCCN(C(=N)N)CC5)cc4)c(=O)nc3[nH]2)cc(C(F)(F)F)c1 [Compound 52],< 16 mg/L
3,N=C(N)NCCCNCc1ccc(-n2cc3cc(-c4ccc(/C=N/OCCNC(=N)N)cc4)[nH]c3nc2=O)cc1 [Compound 53],< 16 mg/L
4,N=C(N)N1CCN(Cc2ccc(-n3cc4cc(-c5ccc(C(NC6CN(C(=N)N)C6)C(F)(F)F)cc5)[nH]c4nc3=O)cc2)CC1 (stereo not drawn) [Compound 54],< 16 mg/L
5,C[C@H](NCCCNC(=N)N)c1ccc(-n2cc3cc(-c4cc(CO[C@H](CN)CO)cc(SC(F)(F)F)c4)[nH]c3nc2=O)cc1 [Compound 55],< 16 mg/L
6,C[C@H](N)CCCc1cc(Cl)c(F)c(-c2cc3cn(-c4ccc([C@H](Cc5cccnc5)NCCCNC(=N)N)cc4)c(=O)nc3[nH]2)c1 [Compound 56],< 16 mg/L
7,C[C@H](N)CCCc1cc(SC(F)(F)F)cc(-c2cc3cn(-c4ccc([C@H](Cc5cccnc5)NCCCNC(=N)N)cc4)c(=O)nc3[nH]2)c1 [Compound 57],< 16 mg/L
8,C[C@H](N)CCCc1cc(SC(F)(F)F)cc(-c2cc3cn(-c4ccc([C@@H](NCCCNC(=N)N)C(N)=O)cc4)c(=O)nc3[nH]2)c1 [Compound 58],< 16 mg/L
9,C[C@H](N)CCCc1cc(-c2cc3cn(-c4ccc([C@@H](NCCCNC(=N)N)C(N)=O)cc4)c(=O)nc3[nH]2)cc(C(F)(F)F)c1 [Compound 59],< 16 mg/L
10,C[C@H](N)CCCc1cc(-c2cc3cn(-c4ccc([C@@H](NCCCNC(=N)N)c5ccc(S(C)(=O)=O)cc5)cc4)c(=O)nc3[nH]2)cc(C(F)(F)F)c1 [Compound 60],> 16 mg/L
11,C[C@H](N)CCCc1cc(Cl)c(F)c(-c2cc3cn(-c4ccc([C@@H](NCCCNC(=N)N)c5cccnc5)cc4)c(=O)nc3[nH]2)c1 [Compound 61],< 16 mg/L
12,C[C@H](N)CCCc1cc(-c2cc3cn(-c4cccc(CCNCCCNC(=N)N)c4)c(=O)nc3[nH]2)cc(C(F)(F)F)c1 [Compound 62],< 16 mg/L
13,C=C[C@H](N)COCc1cc(SC(F)(F)F)cc(-c2cc3cn(-c4ccc([C@H](C)NCCCNC(=N)N)cc4)c(=O)nc3[nH]2)c1 [Compound 63],< 16 mg/L
14,CC[C@H](N)COCc1cc(SC(F)(F)F)cc(-c2cc3cn(-c4ccc([C@H](C)NCCCNC(=N)N)cc4)c(=O)nc3[nH]2)c1 [Compound 64],< 16 mg/L
15,C[C@H](N)CC[C@@H](O)c1cc(SC(F)(F)F)cc(-c2cc3cn(-c4ccc([C@H](C)NCCCNC(=N)N)cc4)c(=O)nc3[nH]2)c1 [Compound 65],< 16 mg/L
16,C[C@H](N)CCCc1cc(SC(F)(F)F)cc(-c2cc3cn(-c4ccc([C@@H](NCCCNC(=N)N)c5cccnc5)cc4)c(=O)nc3[nH]2)c1 [Compound 66],< 16 mg/L
17,C[C@H](NCCCNC(=N)N)c1ccc(-n2cc3cc(-c4cc(CCC[C@H](C)NC(=O)OCc5ccccc5)cc(Cl)c4F)[nH]c3nc2=O)cc1 [Compound 67],< 16 mg/L
18,C[C@H](N)CC[C@H](O)c1cc(SC(F)(F)F)cc(-c2cc3cn(-c4ccc([C@H](C)NCCCNC(=N)N)cc4)c(=O)nc3[nH]2)c1 [Compound 68],< 16 mg/L
19,C[C@H](N)CCCc1cc(Cl)c(F)c(-c2cc3cn(-c4ccc([C@@H](CCc5ccncc5)NCCCNC(=N)N)cc4)c(=O)nc3[nH]2)c1 [Compound 69],< 16 mg/L
20,COC(=O)N[C@@H](C)CCCc1cc(Cl)c(F)c(-c2cc3cn(-c4ccc([C@H](C)NCCCNC(=N)N)cc4)c(=O)nc3[nH]2)c1 [Compound 70],< 16 mg/L
21,CCOC(=O)N[C@@H](C)CCCc1cc(Cl)c(F)c(-c2cc3cn(-c4ccc([C@H](C)NCCCNC(=N)N)cc4)c(=O)nc3[nH]2)c1 [Compound 71],< 16 mg/L
22,C[C@H](NCCCNC(=N)N)c1ccc(-n2cc3cc(-c4cc(CCC[C@H](C)NC(=O)CN)cc(Cl)c4F)[nH]c3nc2=O)cc1 [Compound 72],< 16 mg/L
23,C[C@H](N)CCCc1cc(-c2cc3cn(-c4ccc([C@H](CCF)NCCCNC(=N)N)cc4)c(=O)nc3[nH]2)cc(C(F)(F)F)c1 [Compound 73],< 16 mg/L
24,C[C@H](N)CCCc1cc(Cl)c(F)c(-c2cc3cn(-c4ccc([C@H](CCF)NCCCNC(=N)N)cc4)c(=O)nc3[nH]2)c1 [Compound 74],< 16 mg/L
25,C[C@H](N)CCCc1cc(SC(F)(F)F)cc(-c2cc3cn(-c4ccc([C@H](CCF)NCCCNC(=N)N)cc4)c(=O)nc3[nH]2)c1 [Compound 75],< 16 mg/L
26,CC(=O)N[C@@H](C)CCCc1cc(Cl)c(F)c(-c2cc3cn(-c4ccc([C@H](C)NCCCNC(=N)N)cc4)c(=O)nc3[nH]2)c1 [Compound 76],> 16 mg/L

row,SMILES,MIC
1,CC[C@@H](N)COCc1cc(SC(F)(F)F)cc(-c2cc3cn(-c4ccc([C@H](C)NCCCNC(=N)N)cc4)c(=O)nc3[nH]2)c1 [Compound 77],< 16 mg/L
2,C=C[C@H](N)CC[C@@H](O)c1cc(SC(F)(F)F)cc(-c2cc3cn(-c4ccc([C@H](C)NCCCNC(=N)N)cc4)c(=O)nc3[nH]2)c1 [Compound 78],< 16 mg/L
3,C=C[C@@H](N)CC[C@@H](O)c1cc(SC(F)(F)F)cc(-c2cc3cn(-c4ccc([C@H](C)NCCCNC(=N)N)cc4)c(=O)nc3[nH]2)c1 [Compound 79],< 16 mg/L
4,C[C@H](NCCCNC(=N)N)c1ccc(-n2cc3cc(-c4cc(COC[C@@H](N)CO)cc(SC(F)(F)F)c4)[nH]c3nc2=O)cc1 [Compound 80],< 16 mg/L
5,C=CCC[C@H](NCCCNC(=N)N)c1ccc(-n2cc3cc(-c4cc(CCC[C@H](C)N)cc(Cl)c4F)[nH]c3nc2=O)cc1 [Compound 81],< 16 mg/L
6,C=CCC[C@H](NCCCNC(=N)N)c1ccc(-n2cc3cc(-c4cc(CCC[C@H](C)N)cc(SC(F)(F)F)c4)[nH]c3nc2=O)cc1 [Compound 82],< 16 mg/L
7,CSC[C@H](N)COCc1cc(SC(F)(F)F)cc(-c2cc3cn(-c4ccc([C@H](C)NCCCNC(=N)N)cc4)c(=O)nc3[nH]2)c1 [Compound 83],< 16 mg/L
8,C[C@H](N)CCCc1cc(-c2cc3cn(-c4ccc([C@@H](NCCCNC(=N)N)c5cccnc5)cc4)c(=O)nc3[nH]2)cc(C(F)(F)F)c1 [Compound 84],< 16 mg/L
9,C[C@H](N)CCCc1cc(Cl)c(F)c(-c2cc3cn(-c4ccc([C@H](CCNc5nccs5)NCCCNC(=N)N)cc4)c(=O)nc3[nH]2)c1 [Compound 85],< 16 mg/L
10,C[C@H](N)CCCc1cc(SC(F)(F)F)cc(-c2cc3cn(-c4ccc([C@@H](CCc5ccncc5)NCCCNC(=N)N)cc4)c(=O)nc3[nH]2)c1 [Compound 86],< 16 mg/L
11,C[C@H](N)CCCc1cc(Cl)c(F)c(-c2cc3cn(-c4ccc([C@H](Cn5ccnn5)NCCCNC(=N)N)cc4)c(=O)nc3[nH]2)c1 [Compound 87],< 16 mg/L
12,C[C@H](N)CCCc1cc(SC(F)(F)F)cc(-c2cc3cn(-c4ccc([C@H](Cn5ccnn5)NCCCNC(=N)N)cc4)c(=O)nc3[nH]2)c1 [Compound 88],< 16 mg/L
13,N=C(N)NCCCNCc1cccc(-n2cc3cc(-c4ccc(C(NC5CN(C(=N)N)C5)C(F)(F)F)cc4)[nH]c3nc2=O)c1 (stereo not drawn) [Compound 89],< 16 mg/L
14,C[C@H](N)CCCc1cc(Cl)c(F)c(-c2cc3cn(-c4cccc(CNCCCNC(=N)N)c4)c(=O)nc3[nH]2)c1 [Compound 90],< 16 mg/L
15,C=C[C@H](N)CC[C@H](O)c1cc(SC(F)(F)F)cc(-c2cc3cn(-c4ccc([C@H](C)NCCCNC(=N)N)cc4)c(=O)nc3[nH]2)c1 [Compound 91],< 16 mg/L
16,C[C@H](N)CCCc1cc(Cl)c(F)c(-c2cc3cn(-c4ccc([C@H](N)CCCCNC(=N)N)cc4)c(=O)nc3[nH]2)c1 [Compound 92],< 16 mg/L
17,C[C@H](N)CCCc1cc(SC(F)(F)F)cc(-c2cc3cn(-c4ccc([C@H](N)CCCCNC(=N)N)cc4)c(=O)nc3[nH]2)c1 [Compound 93],< 16 mg/L
18,C[C@H](N)CCCc1cc(-c2cc3cn(-c4ccc([C@H](Cn5ccnn5)NCCCNC(=N)N)cc4)c(=O)nc3[nH]2)cc(C(F)(F)F)c1 [Compound 94],< 16 mg/L
19,C[C@H](N)CCCc1cc(Cl)c(F)c(-c2cc3cn(-c4ccc([C@@H](CF)NCCCNC(=N)N)cc4)c(=O)nc3[nH]2)c1 [Compound 95],< 16 mg/L
20,C[C@H](N)CCCc1cc(SC(F)(F)F)cc(-c2cc3cn(-c4ccc([C@@H](CF)NCCCNC(=N)N)cc4)c(=O)nc3[nH]2)c1 [Compound 96],< 16 mg/L
21,C[C@H](N)CCCc1cc(-c2cc3cn(-c4ccc([C@@H](CF)NCCCNC(=N)N)cc4)c(=O)nc3[nH]2)cc(C(F)(F)F)c1 [Compound 97],< 16 mg/L
22,C[C@H](N)CCCc1cc(-c2cc3cn(-c4ccc([C@H]5COC(=O)N5CCCNC(=N)N)cc4)c(=O)nc3[nH]2)cc(C(F)(F)F)c1 [Compound 98],< 16 mg/L
23,C[C@H](N)CCCc1cc(Cl)c(F)c(-c2cc3cn(-c4ccc([C@H](CCCO)NCCCNC(=N)N)cc4)c(=O)nc3[nH]2)c1 [Compound 99],< 16 mg/L
24,C[C@H](N)CCCc1cc(SC(F)(F)F)cc(-c2cc3cn(-c4ccc([C@H](CCCO)NCCCNC(=N)N)cc4)c(=O)nc3[nH]2)c1 [Compound 100],< 16 mg/L
25,C[C@H](N)CCCc1cc(-c2cc3cn(-c4ccc([C@H](CCCO)NCCCNC(=N)N)cc4)c(=O)nc3[nH]2)cc(C(F)(F)F)c1 [Compound 101],< 16 mg/L
